Read-outs that look alike come from different tables or passages of the source.
What was measured:
[1] = system: SHR and WKY rats; assay: mean arterial pressure and heart rate in anesthetized rats; format: in vivo, rat; settings: for hypotensive effect: 0.3 mg/kg
[2] = molecular target: CB1 receptor (Rattus norvegicus, UniProt P20272); assay: HU210-stimulated [35S]GTPγS binding in brain membranes; format: biochemical; settings: brain membrane preparations, SHR vs WKY
[3] = molecular target: T1, human recombinant FAAH (Homo sapiens, UniProt O00519); assay: biochemical; settings: in vitro
T1 sequence (O00519 1-579): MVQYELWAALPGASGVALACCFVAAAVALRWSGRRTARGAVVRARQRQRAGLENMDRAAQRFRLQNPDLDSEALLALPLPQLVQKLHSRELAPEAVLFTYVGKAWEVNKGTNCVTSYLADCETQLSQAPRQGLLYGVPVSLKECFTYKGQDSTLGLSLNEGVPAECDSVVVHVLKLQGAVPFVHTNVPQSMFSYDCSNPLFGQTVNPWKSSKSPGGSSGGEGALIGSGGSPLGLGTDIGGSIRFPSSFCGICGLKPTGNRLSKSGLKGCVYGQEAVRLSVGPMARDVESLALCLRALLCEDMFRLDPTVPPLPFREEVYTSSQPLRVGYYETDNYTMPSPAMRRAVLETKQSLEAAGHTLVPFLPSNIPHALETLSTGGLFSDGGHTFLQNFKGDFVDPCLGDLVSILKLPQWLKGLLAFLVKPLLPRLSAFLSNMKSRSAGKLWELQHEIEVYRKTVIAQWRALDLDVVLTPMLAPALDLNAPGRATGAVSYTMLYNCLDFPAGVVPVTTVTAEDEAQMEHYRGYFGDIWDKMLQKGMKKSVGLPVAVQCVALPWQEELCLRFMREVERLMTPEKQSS

[4] = molecular target: T2, FAAH (Mus musculus, UniProt O08914); assay: in vivo; format: in vivo; settings: mouse
T2 sequence (O08914 1-579): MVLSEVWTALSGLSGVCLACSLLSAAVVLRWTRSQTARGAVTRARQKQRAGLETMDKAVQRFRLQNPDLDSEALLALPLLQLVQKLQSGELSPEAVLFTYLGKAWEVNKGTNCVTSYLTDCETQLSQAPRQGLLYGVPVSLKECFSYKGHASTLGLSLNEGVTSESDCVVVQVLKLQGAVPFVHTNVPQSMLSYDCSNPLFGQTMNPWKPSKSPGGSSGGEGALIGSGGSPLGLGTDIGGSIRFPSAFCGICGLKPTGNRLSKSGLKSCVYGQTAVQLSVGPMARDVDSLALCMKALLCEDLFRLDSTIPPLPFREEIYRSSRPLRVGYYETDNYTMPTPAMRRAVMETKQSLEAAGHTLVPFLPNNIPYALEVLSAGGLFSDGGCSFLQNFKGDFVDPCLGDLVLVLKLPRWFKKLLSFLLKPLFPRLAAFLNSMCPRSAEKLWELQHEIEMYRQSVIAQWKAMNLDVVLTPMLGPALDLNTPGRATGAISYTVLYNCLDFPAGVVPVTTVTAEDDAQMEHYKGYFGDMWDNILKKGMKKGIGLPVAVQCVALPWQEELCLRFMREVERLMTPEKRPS

[5] = system: Mouse hepatocytes; assay: drug levels in hepatocyte suspensions by LC/MS/MS
[6] = system: anandamide levels in hepatocytes; assay: anandamide levels in hepatocytes; format: cell-based, mouse; settings: 100 nM, dense suspension 40 mg/mL
[7] = molecular target: T2, FAAH; assay: FAAH activity in brain and liver homogenates, drug added in vitro; format: biochemical
[8] = system: SHR and WKY rats; assay: non-fasting blood glucose in rats; settings: 10 mg/kg i.p.
[9] = system: mice with diet-induced obesity; assay: intraperitoneal glucose tolerance test in mice on high-fat diet; format: in vivo, mouse
[10] = molecular target: T2, FAAH; format: cell-based

Chain of CB1 receptor (P20272 whole entry): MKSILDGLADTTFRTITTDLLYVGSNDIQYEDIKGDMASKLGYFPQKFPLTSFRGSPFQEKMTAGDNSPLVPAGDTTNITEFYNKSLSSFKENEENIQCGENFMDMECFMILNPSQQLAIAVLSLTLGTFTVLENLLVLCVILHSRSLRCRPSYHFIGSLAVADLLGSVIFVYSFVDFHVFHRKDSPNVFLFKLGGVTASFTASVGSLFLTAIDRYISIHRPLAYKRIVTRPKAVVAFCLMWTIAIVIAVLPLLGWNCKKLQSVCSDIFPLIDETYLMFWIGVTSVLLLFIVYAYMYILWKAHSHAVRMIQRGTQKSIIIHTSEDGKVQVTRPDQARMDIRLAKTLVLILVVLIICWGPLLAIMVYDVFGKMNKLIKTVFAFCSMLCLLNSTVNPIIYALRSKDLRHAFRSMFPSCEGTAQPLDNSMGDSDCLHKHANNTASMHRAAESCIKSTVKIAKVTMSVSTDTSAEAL

Cc1c(C(=O)NN2CCCCC2)nn(-c2ccc(Cl)cc2Cl)c1-c1ccc(I)cc1 [AM251]
effect on the effects of HU210 ([1]; SHR and WKY): abolished | effect of pretreatment on the MAP and HR effects of AM3506 ([1]; SHR, 3 mg/kg i.p. 60 min before 1 mg/kg AM3506 i.v.): prevented | acute reversal of the fully developed effects of AM3506 ([1]; SHR, 3 mg/kg i.v. at the peak hypotensive response to 1 mg/kg AM3506): acutely reversed

CCCCCOc1ccc(C(=O)c2cccc3ccccc23)c2ccccc12 [CB13]
hypotensive effect ([1]; SHR): −40±6 mmHg | hypotensive effect ([1]; WKY): −36±10 mmHg

CCCCCCC(C)(C)c1cc(O)c2c(c1)OC(C)(C)[C@@H]1CC=C(CO)C[C@@H]21 [HU210]
CB1 receptor coupling efficiency, HU210-stimulated GTPγS labeling [2]: dramatically increased | hypotension, SHR compared with WKY ([1]; 1 μg/kg i.v., anaesthetized rats): much greater hypotension in SHR than in WKY

O=S(=O)(F)Cc1ccccc1 [PMSF, phenyl methyl sulfonyl fluoride, reference compound]
potency against human recombinant FAAH relative to AM3506 and URB597 [3]: 3 orders of magnitude less potent

NC(=O)c1cccc(-c2cccc(OC(=O)NC3CCCCC3)c2)c1 [URB597, reference compound]
suppression of FAAH activity in brain ([4]; in vivo, po, 10 mg/kg): 86±2% | suppression of FAAH activity in liver ([4]; in vivo, po, 10 mg/kg): 83±0.5% | ED50 ([4]; read-out: ID50, inhibition of brain FAAH activity): 0.22 mg/kg | ED50 ([4]; read-out: ID50, inhibition of liver FAAH activity): 0.45 mg/kg | recovery of drug from cell-free medium ([5]; 0 to 30 min, no hepatocytes): remained constant | drug level in cell pellets, dense hepatocyte suspension ([5]; 100 nM, 40 mg/mL): gradually declined over 10 min | drug level in medium, dense hepatocyte suspension ([5]; 100 nM, 40 mg/mL): rapidly depleted from the medium | free drug (parent ion) still present in cell-free supernatant ([5]; dilute hepatocyte suspension 1 mg/mL, 100 nM, 10 min, % of drug added at 0 min): 50–55% | anandamide levels in hepatocytes [6]: markedly increased | FAAH activity in tissue homogenates [7]: equally effective in blocking FAAH activity in brain and liver | non-fasting blood glucose after treatment ([8]; SHR, from 104.0±7.4): 144.0 ± 9.6 mg/dL | non-fasting blood glucose after treatment ([8]; WKY, from 90.0±7.2): 135.3 ± 12.9 mg/dL | ipGTT area under the curve (AUC) ([9]; liver-specific CB1 knockout (LCB1−/−) mice on HFD, vehicle 322±37): 337 ± 14 mg·h/dL | effect on glucose tolerance ([9]; liver-specific CB1−/− mice on HFD, 1.38 mg/kg): failed to affect glucose tolerance | effect on glucose tolerance ([9]; liver-specific CB1−/− mice on HFD, 10 mg/kg): remained ineffective | effect on glucose tolerance ([9]; male DIO mice, 1.38 mg/kg): marked increase in glucose intolerance | ipGTT area under the curve (AUC) ([9]; male DIO mice, 1.38 mg/kg i.p. 60 min before glucose, vehicle 352±28): 570 ± 45 mg·h/dL | effect on glucose tolerance ([9]; wild-type mice on HFD, 10 mg/kg, compared with the lower dose): same degree of glucose intolerance | hypotensive/bradycardic potency, times less potent than AM3506 ([1]; anesthetized SHR): ~ 40 times | FAAH activity in cell pellet, dilute hepatocyte suspension [10]: nearly completely blocked | FAAH activity in cells, dense hepatocyte suspension [10]: rapidly and nearly completely blocked

Cc1c(C(=O)NN2CCCCC2)nn(-c2ccc(Cl)cc2Cl)c1-c1ccc(Cl)cc1 [rimonabant]
ΔHR, acute reversal of AM3506 effect ([1]; SHR, 3 mg/kg, after AM3506): +129±14 bpm | ΔMBP, acute reversal of AM3506 effect ([1]; SHR, 3 mg/kg, after AM3506): +101±9 mmHg

Reference: paper PMC3003779 (Chemistry & biology, 2010)
